In patent US20250270224A1, “POLYCYCLIC POLY(ADP-RIBOSE) POLYMERASE SELECTIVE INHIBITOR” (XUANZHU BIOPHARMACEUTICAL CO., LTD., priority 2022, published 2025):

Columns and labels:
PARP2 = PARP2 (Homo sapiens (Human), UniProt Q9UGN5); experiment: In-vitro enzymatic activity, PARP2 (histone-coated plate, chemiluminescence detection); format: biochemical; details: class symbols
MDA-MB-436 cells = experiment: In-vitro cytological inhibitory activity (CelltiterGlo assay), 7 days culture; format: cell-based; details: BRCA1 mutated human breast cancer cells, CTG
Description: The MDA-MB-436 cells were adherent cells, and the culture solution was DMEM+10% FBS+1% ITS-G+16 μg/ml glutathione.
Cells in the logarithmic growth phase were collected and counted by a […]. The cell viability was detected by a trypan blue exclusion method, and the cell viability was kept over 90%. The cell concentration was adjusted to be in a proper range, and 90 μL of cell suspension was added into a 96-well plate respectively.
The stock solutions of the test compounds were diluted by 10 times from 10 mM to 1 mM with DMSO, and then continuously gradiently diluted by 3 times with DMSO into a total of 9 concentrations.
10 μL of compound working stock solution was added into each well in a 96-well plate inoculated with cells (diluted by 10 times, the final concentration of DMSO was 0.1%).
Solvent control: 0.1% DMSO (2 μL of DMSO was diluted with 198 μL of culture solution, and then 10 μL of the diluted solution was added into the well plate).
Blank control: the 96-well plate was detected and read 0 hour after the addition.
2.5 the 96-Well Plate was Placed in a 5% CO2 Cell Incubator at 37° C. To Culture for 7 Days
A CTG reagent was thawed and the 96-well plate was equilibrated to room temperature for 30 minutes, 60 μL of reagent (Celltiter Glo assay kit) was added into each well and shaken by a shaker for 2 minutes to mix uniformly (in the dark), and the mixture was incubated at room temperature for 20 minutes (in the dark). Light signal values were read by a multi-functional microplate reader.

PARP1 = PARP1 (Homo sapiens (Human), UniProt P09874); experiment: In-vitro enzymatic activity, PARP1 (histone-coated plate, chemiluminescence detection); format: biochemical; details: class symbols
Chain of PARP1 (P09874 whole entry): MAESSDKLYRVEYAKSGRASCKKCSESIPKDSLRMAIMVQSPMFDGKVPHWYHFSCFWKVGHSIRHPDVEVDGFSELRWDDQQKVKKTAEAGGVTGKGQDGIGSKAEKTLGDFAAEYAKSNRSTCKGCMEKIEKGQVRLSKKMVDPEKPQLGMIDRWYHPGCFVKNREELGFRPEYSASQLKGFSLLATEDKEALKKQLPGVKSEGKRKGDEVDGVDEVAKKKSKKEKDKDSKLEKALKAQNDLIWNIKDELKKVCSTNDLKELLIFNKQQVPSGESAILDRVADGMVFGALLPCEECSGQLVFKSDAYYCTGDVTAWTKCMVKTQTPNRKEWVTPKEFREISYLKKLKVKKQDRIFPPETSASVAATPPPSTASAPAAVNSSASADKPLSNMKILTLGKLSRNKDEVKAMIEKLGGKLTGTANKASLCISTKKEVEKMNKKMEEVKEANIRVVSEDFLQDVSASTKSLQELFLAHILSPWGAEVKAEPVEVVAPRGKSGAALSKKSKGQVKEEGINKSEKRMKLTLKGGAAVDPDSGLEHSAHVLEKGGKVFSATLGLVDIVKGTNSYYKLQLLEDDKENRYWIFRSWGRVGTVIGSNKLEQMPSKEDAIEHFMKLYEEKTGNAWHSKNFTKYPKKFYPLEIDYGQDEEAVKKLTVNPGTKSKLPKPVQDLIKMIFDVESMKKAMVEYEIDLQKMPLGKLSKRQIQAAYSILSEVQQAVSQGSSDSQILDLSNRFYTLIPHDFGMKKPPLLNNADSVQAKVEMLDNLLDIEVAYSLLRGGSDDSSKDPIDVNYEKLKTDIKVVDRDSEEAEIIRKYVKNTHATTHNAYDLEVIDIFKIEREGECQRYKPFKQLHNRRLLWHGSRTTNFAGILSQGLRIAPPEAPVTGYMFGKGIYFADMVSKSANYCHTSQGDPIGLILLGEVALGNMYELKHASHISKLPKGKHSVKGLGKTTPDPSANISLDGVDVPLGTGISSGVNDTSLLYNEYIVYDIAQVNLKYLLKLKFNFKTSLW

Chain of PARP2 (Q9UGN5 whole entry): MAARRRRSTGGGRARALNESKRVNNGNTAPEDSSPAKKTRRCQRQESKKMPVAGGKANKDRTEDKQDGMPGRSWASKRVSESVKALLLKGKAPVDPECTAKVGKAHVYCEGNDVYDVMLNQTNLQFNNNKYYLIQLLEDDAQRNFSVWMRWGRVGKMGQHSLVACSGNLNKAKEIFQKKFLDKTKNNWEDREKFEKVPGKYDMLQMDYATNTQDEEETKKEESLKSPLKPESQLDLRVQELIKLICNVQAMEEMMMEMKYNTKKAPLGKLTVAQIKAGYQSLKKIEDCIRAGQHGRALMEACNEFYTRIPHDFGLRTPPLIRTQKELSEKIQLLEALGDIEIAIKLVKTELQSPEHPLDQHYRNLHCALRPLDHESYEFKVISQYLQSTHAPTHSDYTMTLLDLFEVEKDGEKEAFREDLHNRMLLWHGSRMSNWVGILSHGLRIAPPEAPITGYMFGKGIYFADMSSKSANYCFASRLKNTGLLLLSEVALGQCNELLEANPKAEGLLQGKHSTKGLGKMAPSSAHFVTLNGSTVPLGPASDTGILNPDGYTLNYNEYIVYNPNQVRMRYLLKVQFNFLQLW

Compound	IC50 (PARP2)	IC50 (MDA-MB-436 cells)	IC50 (PARP1)	IC50 (MDA-MB-436 cells; MDA-MB-436, 168 h)
CNC(=O)c1ccc(N2CCN(Cc3cc4c5c(c(C)c(=O)[nH]c5c3)CC4)CC2)c(F)n1 [Compound 31, 6-fluoro-N-methyl-5-(4-((3-methyl-2-oxo-1,2,4,5-tetrahydrocyclopentane[de]quinoline-7-yl)methyl)piperazine-1-yl)pyridine carboxamide]	10 to 100 nM	2.2 nM	< 1 nM	–
CNC(=O)c1ccc(N2CCN(Cc3cc4ccn5c4c(c3F)NC(=O)[C@H]5C)CC2)c(F)n1 [Compound 36, (R)-6-fluoro-5-(4-((9-fluoro-3-methyl-2-oxo-2,3-dihydro-1H-pyrrolo[1,2,3-de]quinoxaline-8-yl)methyl)piperazine-1-yl)-N-methylpyridine formamide]	–	–	–	11.1 nM
CNC(=O)c1ccc(N2CCN(Cc3cc4cc(C)n5c4c(c3F)NC(=O)C5C)CC2)c(F)n1 (centres unmarked) [Compound 34, 6-fluoro-5-(4-((9-fluoro-3,5-dimethyl-2-oxo-2,3-dihydro-1H-pyrrolo[1,2,3-de]quinoxaline-8-yl)methyl)piperazine-1-yl)-N-methylpyridine formamide]	100 to 1000 nM	–	1 to 3 nM	13.6 nM
(S)-6-fluoro-5-(4-((9-fluoro-3-methyl-2-oxo-2,3-dihydro-1H-pyrrolo[1,2,3-de]quinoxaline-8-yl) methyl)piperazine-1-yl)-N-methylpyridine formamide [Compound 35]	–	46.5 nM	–	–
CNC(=O)c1ccc(N2CCN(Cc3cc4c5c(c(C)c(=O)[nH]c5c3)CCC4)CC2)c(F)n1 [Compound 25, 6-fluoro-N-methyl-5-(4-((3-methyl-2-oxo-2,4,5,6-tetrahydro-1H-benzo[de]quinoline-8-yl)methyl)piperazine-1-yl)picolinamide]	10 to 100 nM	–	< 1 nM	15.8 nM
CNC(=O)c1ccc(N2CCN(Cc3cc4c5c(cnn5CC(=O)N4)c3)CC2)c(F)n1 [Compound 8, 6-fluoro-N-methyl-5-(4-((2-oxo-2,3-dihydro-1H-pyrazolo[1,5,4-de]quinoxaline-8-yl)methyl)piperazine-1-yl)picolinamide]	–	–	–	129 nM
CNC(=O)c1ccc(N2CCN(Cc3cc4c5c(c(C)c(=O)[nH]c5c3F)CC4)CC2)c(F)n1 [Compound 6, 6-fluoro-5-(4-((8-fluoro-3-methyl-2-oxo-1,2,4,5-tetrahydrocyclopentyl[de]quinoline-7-yl)methyl)piperazine-1-yl)-N-methylpicolinamide]	–	2 nM	–	–
CNC(=O)c1ccc(N2CCN(Cc3cc4c5c(ccn5C(C)(C)C(=O)N4)c3)CC2)c(F)n1 [Compound 46, 5-(4-((3,3-dimethyl-2-oxo-2,3-dihydro-1H-pyrrolo[1,2,3-de]quinoxaline-8-yl)methyl)piperazine-1-yl)-6-fluoro-N-methylpicolinamide]	100 to 1000 nM	–	3 to 10 nM	9.2 nM
CNC(=O)c1ccc(N2CCN(Cc3cc4c5c(c3)c(F)nn5[C@@H](C)C(=O)N4)CC2)c(F)n1 [Compound 49-1, (S)-6-fluoro-5-(4-((6-fluoro-3-methyl-2-oxo-2,3-dihydro-1H-pyrazolo[1,5,4-de]quinoxaline-8-yl)methyl)piperazine-1-yl)-N-methylpicolinamide]	100 to 1000 nM	–	1 to 3 nM	3.6 nM
CNC(=O)c1ccc(N2CCN(Cc3cc4c5c(ccn5CC(=O)N4)c3)CC2)c(F)n1 [Compound 11, 6-fluoro-N-methyl-5-(4-((2-oxo-2,3-dihydro-1H-pyrrolo[1,2,3-de]quinoxaline-8-yl)methyl)piperazine-1-yl)picolinamide]	–	–	–	21.5 nM
CNC(=O)c1ccc(N2CCN(Cc3cc4c5c(c3)c(F)nn5[C@H](C)C(=O)N4)CC2)c(F)n1 [Compound 49-2, (R)-6-fluoro-5-(4-((6-fluoro-3-methyl-2-oxo-2,3-dihydro-1H-pyrazolo[1,5,4-de]quinoxaline-8-yl)methyl)piperazine-1-yl)-N-methylpicolinamide]	100 to 1000 nM	–	< 1 nM	2.9 nM
5-(4-((6,9-difluoro-3-methyl-2-oxo-2,3-dihydro-1H-pyrrolo[1,2,3-de]quinoxaline-8-yl)methyl)piperazine-1-yl)-6-fluoro-N-methylpyridine Formamide [Compound 38]	100 to 1000 nM	15.2 nM	1 to 3 nM	–
